Results: patent US20240148821A1, “PHARMACEUTICAL USE OF CYCLIC PEPTIDE COMPOUND” (CHUGAI SEIYAKU KABUSHIKI KAISHA, priority 2021, published 2024)
Bridge positions count the residues as written; N and C are the ends. Square brackets hold non-standard residues; d marks the D form. Peptide text beside a SMILES is read from it. * marks the point of attachment. hPhe(3-Cl-4-CF3) = N[C@@H](CCc1ccc(C(F)(F)F)c(Cl)c1)C(=O)O; NMePhe(4-Cl) = CN[C@@H](Cc1ccc(Cl)cc1)C(=O)O; NMePhe(4-Me) = CN[C@@H](Cc1ccc(C)cc1)C(=O)O; NMeGly(cPent) = CN[C@H](C(=O)O)C1CCCC1; Met(O2) = CS(=O)(=O)CC[C@H](N)C(=O)O; NMeGly(cBu) = CN[C@H](C(=O)O)C1CCC1; NMeCha = CN[C@@H](CC1CCCCC1)C(=O)O; Hyp = O=C(O)[C@@H]1C[C@@H](O)CN1; NMeChg = CN[C@H](C(=O)O)C1CCCCC1; NMeI = CC[C@H](C)[C@H](NC)C(=O)O; NMeD = CN[C@@H](CC(=O)O)C(=O)O; NMeL = CN[C@@H](CC(C)C)C(=O)O; NMeV = CN[C@H](C(=O)O)C(C)C; d(β3hA) = C[C@@H](N)CC(=O)O; NMeS = CN[C@@H](CO)C(=O)O; dNMeS = CN[C@H](CO)C(=O)O; NMeA = CN[C@@H](C)C(=O)O; Piperidide = C1CCN(*)CC1; Pyrrolidide = C1CCN(*)C1; Ac5c = NC1(C(=O)O)CCCC1; Aze = O=C(O)[C@@H]1CCN1; Cyclopropyl = C1CC1*; Isopentyl = CC(C)CC*; NEtG = CCNCC(=O)O; Sar = CNCC(=O)O

Experiments:
[1] = biological target: protein-protein interaction between Kras and SOS1 (biotin-tagged human Kras loaded with GDP, His-tagged human SOS1) (Homo sapiens (Human), UniProt P01116, G12D); assay: Protein-protein interaction inhibition between Kras and SOS1 (KrasG12D-SOS PPI) using AlphaScreen; format: biochemical; conditions: AlphaScreen; biotin-tagged human Kras loaded with GDP, His-tagged human SOS1; read-out: KRAS G12D-SOS PPI IC50;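 note: kras produced in E. coli, Ni-coupled donor beads and streptavidin acceptor beads, excitation 680 nm with emission detected at 520–620 nm via singlet oxygen transfer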
[2] = tested on: Human pancreatic cancer cell line AsPC-1 (G12D mutation Kras); assay: AsPC-1 cell growth inhibition (AsPC-1 CGI); format: cell-based; conditions: read-out: AsPC-1 cell growth inhibition, 50% growth inhibitory concentration (IC50 value); 96 hours, CellTiter-Glo, values classified in ranges

Row | Structure (SMILES) | IC50 [1] [nM] | IC50 [2] [nM]
1 | CC[C@H](C)[C@@H]1NC(=O)[C@H](CC(C)C)N(C)C(=O)C[C@@H](C(=O)N2CCCCC2)N(C)C(=O)[C@H](C2CCCCC2)N(C)C(=O)C2(CCCC2)NC(=O)[C@@H](COCCC(C)C)N(C)C(=O)[C@H](CCc2ccc(C(F)(F)F)c(Cl)c2)NC(=O)CN(C)C(=O)[C@H](CC2CCCCC2)N(C)C(=O)CN(C)C(=O)CN(C)C1=O [Compound 1436] ([NMeL]I[Sar][Sar][NMeCha][Sar][hPhe(3-Cl-4-CF3)][dNMeS](Isopentyl)[Ac5c][NMeChg][NMeD]-Piperidide; lactam N-11) | 39 | > 500
2 | CC[C@H](C)[C@@H]1NC(=O)[C@H](CC(C)C)N(C)C(=O)C[C@@H](C(=O)N2CCCCC2)N(C)C(=O)[C@H](C2CCCC2)N(C)C(=O)C2(CCCC2)NC(=O)[C@@H]2CCCN2C(=O)[C@H](CCc2ccc(C(F)(F)F)c(Cl)c2)NC(=O)CN(C)C(=O)[C@H](CC2CCCCC2)N(C)C(=O)[C@@H]2CCN2C(=O)[C@H](C)N(C)C1=O [Compound 1787] ([NMeL]I[NMeA][Aze][NMeCha][Sar][hPhe(3-Cl-4-CF3)]P[Ac5c][NMeGly(cPent)][NMeD]-Piperidide; lactam N-11) | 1.1 | ≤ 20
3 | CCO[C@@H]1C[C@H]2C(=O)NC3(CCCC3)C(=O)N(C)[C@@H](C3CCCCC3)C(=O)N(C)[C@H](C(=O)N3CCCC3)CC(=O)N(C)[C@@H](C3CCC3)C(=O)N[C@@H]([C@@H](C)CC)C(=O)N(C)CC(=O)N(C)CC(=O)N(C)[C@@H](CC3CCCCC3)C(=O)N(C)CC(=O)N[C@@H](CCc3ccc(C(F)(F)F)c(Cl)c3)C(=O)N2C1 [Compound 1204] ([NMeGly(cBu)]I[Sar][Sar][NMeCha][Sar][hPhe(3-Cl-4-CF3)][Hyp](Et)[Ac5c][NMeChg][NMeD]-Pyrrolidide; lactam N-11) | 0.44 | ≤ 20
4 | CC[C@H](C)[C@@H]1NC(=O)[C@H](CC(C)C)N(C)C(=O)C[C@@H](C(=O)N2CCCCC2)N(C)C(=O)[C@H](COC2CC2)N(C)C(=O)C2(CCCC2)NC(=O)[C@@H]2CCCN2C(=O)[C@H](CCc2ccc(C(F)(F)F)c(Cl)c2)NC(=O)CN(C)C(=O)[C@H](CC2CCCCC2)N(C)C(=O)[C@@H]2CCN2C(=O)[C@H](C)N(C)C1=O [Compound 1690] ([NMeL]I[NMeA][Aze][NMeCha][Sar][hPhe(3-Cl-4-CF3)]P[Ac5c][NMeS](Cyclopropyl)[NMeD]-Piperidide; lactam N-11) | 97 | > 500
5 | CC[C@H](C)[C@@H]1NC(=O)[C@H](CC(C)C)N(C)C(=O)C[C@@H](C(=O)N(C)C)N(C)C(=O)[C@H]([C@@H](C)CC)N(C)C(=O)C2(CCCC2)NC(=O)[C@@H]2CCCN2C(=O)[C@H](CCc2ccc(C(F)(F)F)c(Cl)c2)NC(=O)CN(CC)C(=O)[C@H](Cc2ccc(C)cc2)N(C)C(=O)[C@@H]2CCN2C(=O)[C@H](C)N(C)C1=O [Compound 1120] ([NMeL]I[NMeA][Aze][NMePhe(4-Me)][NEtG][hPhe(3-Cl-4-CF3)]P[Ac5c][NMeI][NMeD]-NMe2; lactam N-11) | 2.5 | ≤ 20
6 | CC(C)C[C@H]1C(=O)N[C@@H](CCS(C)(=O)=O)C(=O)N(C)[C@@H](C)C(=O)N2CC[C@H]2C(=O)N(C)[C@@H](CC2CCCCC2)C(=O)N(C)CC(=O)N[C@@H](CCc2ccc(C(F)(F)F)c(Cl)c2)C(=O)N2CCC[C@H]2C(=O)NC2(CCCC2)C(=O)N(C)[C@@H](C(C)C)C(=O)N(C)[C@H](C(=O)N2CCCCC2)CC(=O)N1C [Compound 174] ([NMeL][Met(O2)][NMeA][Aze][NMeCha][Sar][hPhe(3-Cl-4-CF3)]P[Ac5c][NMeV][NMeD]-Piperidide; lactam N-11) | 57 | > 500
7 | CC[C@H](C)[C@@H]1NC(=O)[C@H](CC(C)C)NC(=O)C[C@@H](C)NC(=O)[C@H](C2CCCC2)N(C)C(=O)C2(CCCC2)NC(=O)[C@@H]2CCCN2C(=O)[C@H](CCc2ccc(C(F)(F)F)c(Cl)c2)NC(=O)CN(C)C(=O)[C@H](Cc2ccc(C)cc2)N(C)C(=O)[C@@H]2CCN2C(=O)[C@H](C)N(C)C1=O [Compound 648] (cyclo([Ac5c][NMeGly(cPent)][d(β3hA)]LI[NMeA][Aze][NMePhe(4-Me)][Sar][hPhe(3-Cl-4-CF3)]P)) | 3.2 | > 500
8 | CC[C@H](C)[C@@H]1NC(=O)[C@H](CC(C)C)N(C)C(=O)C[C@@H](C(=O)N2CCCCC2)N(C)C(=O)[C@H](C2CCCC2)N(C)C(=O)C2(CCCC2)NC(=O)[C@@H]2CCCN2C(=O)[C@H](CCc2ccc(C(F)(F)F)c(Cl)c2)NC(=O)CN(C)C(=O)[C@H](Cc2ccc(Cl)cc2)N(C)C(=O)[C@@H]2CCN2C(=O)[C@H](C)N(C)C1=O [Compound 120] ([NMeL]I[NMeA][Aze][NMePhe(4-Cl)][Sar][hPhe(3-Cl-4-CF3)]P[Ac5c][NMeGly(cPent)][NMeD]-Piperidide; lactam N-11) | 0.55 | ≤ 20
